One compound from US7803949B2, “Process for preparation of water-soluble azole prodrugs” (Eisai R&D Management Co., Ltd., priority 2005, dated 2010) can be followed below.

Structures are written as SMILES. Counter-ions that a name gives are not always drawn.

This data set in a line: hygroscopicity by the micro balance method (Gravimetric Vapour Sorption System DVS-1). In kind it is physicochemical. The conditions noted are these: FIG. 2 (A); temperature 25.1° C. The text has this:
Next, it will be illustrated that although Compound (IV) prepared according to the present invention is a mono lysine salt, it has excellent […] in a comparison with a dilysine salt. Note that, a dilysine salt can be prepared by the methods disclosed in Published Japanese Translation of a PCT Application No. 2003-520235. […] Note that, the measurement instrument used in the micro balance method was the following apparatus:
Gravimetric Vapour Sorption System (Model DVS-1 Surface Measurement System).

Take `C[C@@H](c1nc(-c2ccc(C#N)cc2)cs1)[C@@](Cn1cncn1)(OCOP(=O)(O)O)c1ccc(F)cc1F` [mono lysine salt]: the “relative humidity at which moisture absorption phenomenon was observed” value came out at 70 % RH.
